Assay results as given in ChEMBL document CHEMBL1201862, “PubChem BioAssay data set” (2004).
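In this assay, cells in 96-well plates receive the compound at five concentrations for 48 hours. Endpoints are linearly interpolated between the surrounding concentrations. Abbreviation: GI50, concentration required for 50% inhibition of growth.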 Active and inactive are the calls of the source. Rule as the data show it: active = GI50 up to about 1.1 µM and inactive = higher.

Columns and labels:
Experiment in all cases: DTP human tumour cell line panel, 48 h
A549 = system: A549
CAKI-1 = system: CAKI-1
EKVX = system: EKVX
HCC 2998 = system: HCC 2998
HCT-15 = system: HCT-15
HOP-92 = system: HOP-92
HT-29 = system: HT-29
NCI-H226 = system: NCI-H226
NCI-H23 = system: NCI-H23
OVCAR-3 = system: OVCAR-3
OVCAR-4 = system: OVCAR-4
OVCAR-5 = system: OVCAR-5
RXF 393 = system: RXF 393
SF-295 = system: SF-295
SF-539 = system: SF-539
SK-OV-3 = system: SK-OV-3
SW-620 = system: SW-620
TK-10 = system: TK-10
UACC-62 = system: UACC-62
NCI-H522 = system: NCI-H522

SMILES | GI50 (A549) | GI50 (CAKI-1) | GI50 (EKVX) | GI50 (HCC 2998) | GI50 (HCT-15) [µM] | GI50 (HOP-92) | GI50 (HT-29) | GI50 (NCI-H226) | GI50 (NCI-H23) | GI50 (OVCAR-3) | GI50 (OVCAR-4) | GI50 (OVCAR-5) | GI50 (RXF 393) | GI50 (SF-295) | GI50 (SF-539) | GI50 (SK-OV-3) | GI50 (SW-620) | GI50 (TK-10) | GI50 (UACC-62) | GI50 (NCI-H522)
CC(=O)NC1=C(NC(C)(C)C)C(=O)c2ccccc2C1=O | 48.1 µM (inactive) | 16.1 µM (inactive) | 28.2 µM (inactive) | > 100 µM (inactive) | 17.3 | 19.1 µM (inactive) | 23.2 µM (inactive) | 14.5 µM (inactive) | 18.7 µM (inactive) | 15.6 µM (inactive) | 20.1 µM (inactive) | 48.1 µM (inactive) | 17.9 µM (inactive) | 42.7 µM (inactive) | 15.8 µM (inactive) | 54 µM (inactive) | 14.1 µM (inactive) | 19.3 µM (inactive) | 13.7 µM (inactive) | 
COC(=O)/C(=N/NC(C)(C)C)C(C(=O)OC)C(=O)C(=O)Nc1nc2ccc([N+](=O)[O-])cc2s1 (centres undefined) | > 100 µM (inactive) | > 100 µM (inactive) | > 100 µM (inactive) | > 100 µM (inactive) | > 100 |  | > 100 µM (inactive) | > 100 µM (inactive) | > 100 µM (inactive) | > 100 µM (inactive) | > 100 µM (inactive) | > 100 µM (inactive) |  | > 100 µM (inactive) | > 100 µM (inactive) | > 100 µM (inactive) | > 100 µM (inactive) | > 100 µM (inactive) | > 100 µM (inactive) | > 100 µM (inactive)
COc1ccc(CCCNC(=O)Cc2ccccc2CO)cc1OC | > 100 µM (inactive) | > 100 µM (inactive) | > 100 µM (inactive) | > 100 µM (inactive) | > 100 | > 100 µM (inactive) | > 100 µM (inactive) | > 100 µM (inactive) | > 100 µM (inactive) | > 100 µM (inactive) | > 100 µM (inactive) | > 100 µM (inactive) |  |  |  |  | > 100 µM (inactive) | > 100 µM (inactive) | > 100 µM (inactive) | 
C=CCCC(OCOCCOC)c1cc(C)c(O[Si](C)(C)C(C)(C)C)c(C)c1 (centres undefined) | 16.4 µM (inactive) |  | 32.2 µM (inactive) | 14 µM (inactive) | 13.2 |  |  | 13.5 µM (inactive) | 14.5 µM (inactive) | 13.6 µM (inactive) |  | 17 µM (inactive) | 13.8 µM (inactive) | 17.3 µM (inactive) | 18.4 µM (inactive) | 25.4 µM (inactive) | 16 µM (inactive) | 22 µM (inactive) | 10.7 µM (inactive) | 11.8 µM (inactive)
CC(C)[Si](OC1=C(C(=O)N(C)c2cccc(Cl)c2)CCCC1)(C(C)C)C(C)C | 4.41 µM (inactive) | 13.2 µM (inactive) | 15.6 µM (inactive) | 17 µM (inactive) | 14 | 12.4 µM (inactive) | 15.3 µM (inactive) | 15.8 µM (inactive) | 11.7 µM (inactive) | 14 µM (inactive) | 12.7 µM (inactive) | 10.1 µM (inactive) | 3.4 µM (inactive) | 11 µM (inactive) | 17.3 µM (inactive) | 16.6 µM (inactive) | 13.6 µM (inactive) | 15.4 µM (inactive) | 14.7 µM (inactive) | 
COc1ccc(C(=O)N2CCc3c([nH]c4ccccc34)C2C(=O)O)o1 (centres undefined) | > 10 µM (inactive) | > 10 µM (inactive) | > 10 µM (inactive) | > 10 µM (inactive) | > 10 | > 10 µM (inactive) | > 10 µM (inactive) |  |  | > 10 µM (inactive) | > 10 µM (inactive) |  |  | > 10 µM (inactive) | > 10 µM (inactive) | > 10 µM (inactive) | > 10 µM (inactive) | > 10 µM (inactive) | > 10 µM (inactive) | 
CC(C)(C)c1cc(S(=O)(=O)O)c2oc(-c3ccccc3)cc(=O)c2c1 | > 100 µM (inactive) | > 100 µM (inactive) | > 100 µM (inactive) | > 100 µM (inactive) | > 100 |  | > 100 µM (inactive) | > 100 µM (inactive) | > 100 µM (inactive) | > 100 µM (inactive) |  |  | > 100 µM (inactive) | > 100 µM (inactive) | > 100 µM (inactive) |  | > 100 µM (inactive) | > 100 µM (inactive) |  | > 100 µM (inactive)
COC(=O)CP1(=O)OC2C(C3CCC2(C)C3(C)C)N1c1cc(C(F)(F)F)cc(C(F)(F)F)c1 (centres undefined) | 30 µM (inactive) | 24.9 µM (inactive) | 30.5 µM (inactive) | 22.9 µM (inactive) | 24.4 |  | 26.1 µM (inactive) | 31.6 µM (inactive) | 26.6 µM (inactive) | 15.2 µM (inactive) | 13.5 µM (inactive) | 25.3 µM (inactive) |  | 19.7 µM (inactive) | 21.9 µM (inactive) | 33.4 µM (inactive) | 24.1 µM (inactive) | 24.7 µM (inactive) | > 100 µM (inactive) | 
Nc1ncnc2c1nnn2C1C=CC(CP(=O)(O)O)C1 (centres undefined) | > 100 µM (inactive) |  | > 100 µM (inactive) | > 100 µM (inactive) | > 100 |  | > 100 µM (inactive) | > 100 µM (inactive) | > 100 µM (inactive) | > 100 µM (inactive) | > 100 µM (inactive) | > 100 µM (inactive) | > 100 µM (inactive) | > 100 µM (inactive) | > 100 µM (inactive) | > 100 µM (inactive) | > 100 µM (inactive) | > 100 µM (inactive) | > 100 µM (inactive) | 
COc1cc([N+](=O)[O-])ccc1NC(=O)C(F)(F)F | > 100 µM (inactive) | > 100 µM (inactive) | > 100 µM (inactive) |  | > 100 |  | 65.3 µM (inactive) | > 100 µM (inactive) | > 100 µM (inactive) | > 100 µM (inactive) | > 100 µM (inactive) | > 100 µM (inactive) |  | > 100 µM (inactive) | > 100 µM (inactive) | > 100 µM (inactive) | > 100 µM (inactive) | > 100 µM (inactive) | 43.1 µM (inactive) | 80.7 µM (inactive)
COc1cc([N+](=O)[O-])c(S(=O)(=O)O)cc1N | > 100 µM (inactive) | > 100 µM (inactive) | > 100 µM (inactive) |  | > 100 |  | > 100 µM (inactive) | > 100 µM (inactive) | > 100 µM (inactive) | > 100 µM (inactive) | > 100 µM (inactive) | > 100 µM (inactive) |  |  | > 100 µM (inactive) | > 100 µM (inactive) | > 100 µM (inactive) | > 100 µM (inactive) | > 100 µM (inactive) | > 100 µM (inactive)
C1=CC=C2NCCSCC/N=C3/C=CC=CC=C3NCCSCC/N=C\2C=C1 | > 100 µM (inactive) | > 100 µM (inactive) | > 100 µM (inactive) | > 100 µM (inactive) | > 100 |  | > 100 µM (inactive) | > 100 µM (inactive) | > 100 µM (inactive) | > 100 µM (inactive) | > 100 µM (inactive) | > 100 µM (inactive) |  | > 100 µM (inactive) |  | > 100 µM (inactive) | > 100 µM (inactive) | > 100 µM (inactive) | > 100 µM (inactive) | > 100 µM (inactive)
COc1cc(C(=O)C2C(=O)c3ccccc3C2C2(O)c3ccccc3CC2C(O)c2cc(OC)c(OC)c(OC)c2)cc(OC)c1OC (centres undefined) | > 100 µM (inactive) | > 100 µM (inactive) | > 100 µM (inactive) | > 100 µM (inactive) | > 100 | 51.2 µM (inactive) | > 100 µM (inactive) | > 100 µM (inactive) | > 100 µM (inactive) | > 100 µM (inactive) | > 100 µM (inactive) | > 100 µM (inactive) | > 100 µM (inactive) | 74.6 µM (inactive) | 37.2 µM (inactive) | 32.1 µM (inactive) | > 100 µM (inactive) | > 100 µM (inactive) | > 100 µM (inactive) | 
C=CCC1C2CCC(O[Si](C(C)C)(C(C)C)C(C)C)(C(C(=O)OC)C2)C1O (centres undefined) | 32.9 µM (inactive) | > 100 µM (inactive) | 22.4 µM (inactive) |  | 77.3 | > 100 µM (inactive) | 53.7 µM (inactive) | > 100 µM (inactive) | 23.5 µM (inactive) | > 100 µM (inactive) | > 100 µM (inactive) | > 100 µM (inactive) |  | 23.4 µM (inactive) | > 100 µM (inactive) | > 100 µM (inactive) | > 100 µM (inactive) | 14.4 µM (inactive) | 55.2 µM (inactive) | 
COC(=O)CC(C(C(=O)OCc1ccccc1)C(C)O)N1C(=O)OCC1c1ccccc1 (centres undefined) | 44.8 µM (inactive) |  | 62.1 µM (inactive) | > 100 µM (inactive) | > 100 |  | > 100 µM (inactive) | 31.6 µM (inactive) | 60.1 µM (inactive) | 93.5 µM (inactive) | 84.1 µM (inactive) |  | 95.7 µM (inactive) | 45 µM (inactive) | > 100 µM (inactive) |  | > 100 µM (inactive) | > 100 µM (inactive) | 35.6 µM (inactive) | 
CCCC(=O)Oc1cc(OC(=O)CCC)c2c(C)cc(=O)oc2c1 | 92.9 µM (inactive) |  | > 100 µM (inactive) |  | > 100 | 19.6 µM (inactive) | 36.5 µM (inactive) | 87.7 µM (inactive) | 71 µM (inactive) | 50 µM (inactive) | > 100 µM (inactive) | > 100 µM (inactive) |  | 78.7 µM (inactive) | 21.8 µM (inactive) | > 100 µM (inactive) | 49.9 µM (inactive) | > 100 µM (inactive) | 66.1 µM (inactive) | 
CN(C)CCC1(C2=CCCC2)CC/C(=C\c2ccccc2Cl)C1=O (centres undefined) | 13.8 µM (inactive) |  | 15.6 µM (inactive) | 8.61 µM (inactive) | 5.85 | 12.4 µM (inactive) | 6.44 µM (inactive) |  | 15.2 µM (inactive) | 14.3 µM (inactive) | 11.9 µM (inactive) | 15.7 µM (inactive) | 4.49 µM (inactive) | 14.6 µM (inactive) | 15.2 µM (inactive) |  | 11.9 µM (inactive) | 18.7 µM (inactive) | 14.6 µM (inactive) | 
